Assay results from PMC6242746 (Chemistry, an Asian journal, 2018).

Experiments:
HeLa cells = assay: Percentage of peptide remained in HeLa cell lysate; type: in vitro ADME; conditions: 200 μM alone or with 100 nM BTZ, 1 h; cell lysate or culture medium
[1] = Self-assembly: hydrogelation and nanofiber formation; type: physicochemical; conditions: 500 μM, TEM images

Substance	Degradation in HeLa cells compared with 1 (in words) (HeLa cells)	Nanofiber formation (TEM) [1]
Nap-Phe-Phe-Asn [compound 2]	degrade slower than 1	can form nanofibers
Nap-Phe-Phe-Glu [compound 3]	degrade slower than 1	can form nanofibers
